Format in all cases: biochemical
The test system of assay [1] is D-acylase from Aspergillus oryzae in the presence of an N-acetylamino acid racemase (AAR) from Amycolatopsis orientalis subsp. lurida. The assay is described as follows: D-acylase activity assay in the presence of AAR, producing D-Met from Moc-L-Met. To be noted: Moc-L-Met 25 mM, Tris/HCl 50 mM pH 8.0, cobalt chloride 6 mM, D-Acylase 2.4 U, AAR 0.4 U, final volume 200 μL; D-Met detected by RP HPLC. From the text: B. Producing D-Met from Moc-L-Met Moc-L-Met was used in an assay to determine the activity of the D-acylase from Aspergillus oryzae in the presence of an N-acetylamino acid racemase (AAR) from Amycolatopsis orientalis subsp. lurida. [table] D-Met and L-Met were detected by reverse phase HPLC (RP 18). The unit data for the enzymes refer to specific activity with N-Ac-L-Met and N-Ac-D-Met as substrate.

In assay [2] the test system is N-acetylamino acid racemase (AAR) from Amycolatopsis orientalis subsp. lurida. In words: Racemase activity assay of recombinant N-acetylamino acid racemase (polarimeter). Particulars: substrate 25 mM, Tris/HCl 50 mM pH 8.0, cobalt chloride 6 mM, ca. 150 μg AAR, 30° C., 3 to 12 hours, λ=365 nm. The procedure:
Detection of the racemase activity of a recombinant N-acetylamino acid racemase AAR enzyme The substrate spectrum of the N-acetylamino acid racemase (AAR) from Amycolatopsis orientalis subsp. lurida was tested with the enzyme assay described herein below. The composition of the assay was as follows: [table] Enantiomer-pure amino acid derivatives were used in the assay and the formation of the corresponding racemate was followed using a polarimeter (Perkin-Elmer 241). The incubation was carried out at 30° C. (heatable cell) for 3 to 12 hours. The measurements were made at a wavelength of λ=365 nm.

Assay [3] concerns L-acylase from Aspergillus oryzae. In words: L-acylase activity assay, producing L-Met from Moc-L-Met. Particulars: Moc-L-Met 25 mM, Tris/HCl 50 mM pH 8.0, cobalt chloride 6 mM, L-Acylase 2.0 U, final volume 200 μL; L-Met detected by RP HPLC. From the text: Moc-L-Met was used in an assay to determine the activity of the L-acylase from Aspergillus oryzae. A. Producing L-Met from Moc-L-Met [table] D-Met and L-Met were detected by reverse phase HPLC (RP 18). The unit data for the enzymes refer to specific activity with N-Ac-L-Met and N-Ac-D-Met as substrate.

The structures appear in SMILES notation.

`COC(=O)N[C@@H](CCSC)C(=O)O` [N-methyloxycarbonyl-L-Met]: the Volume activity in assay [1] amounted to 0.6 U/ml; in assay [3] it was 1.4 U/ml. In addition, the “Specific Activity of the AAR” value in assay [2] is recorded as 42 mU/mg.

The values are drawn from patent publication US6656710B2, “Process for the production of amino acids using racemase and acylase” (priority 2000, dated 2003).
